Measurements taken from patent US20260184706A1, “PHENYLSULFONAMIDE DERIVATIVES, PREPARATION METHOD THEREFOR, AND PHARMACEUTICAL COMPOSITION FOR PREVENTION OR TREATMENT OF CANCER CONTAINING SAME AS ACTIVE INGREDIENT” (Korea Research Institute of Chemical Technology, priority 2022, published 2026).

Assays:
[1] = biological target: recombinant human GCN2 protein (Homo sapiens, UniProt Q9P2K8); assay: General control nonderepressible 2 (GCN2) inhibitory capacity, 33P-ATP filter assay; type: biochemical; conditions: recombinant human GCN2, 70 uM [gamma-33P-ATP], 40 minutes, room temperature
Chain of recombinant human GCN2 protein (Q9P2K8 whole entry): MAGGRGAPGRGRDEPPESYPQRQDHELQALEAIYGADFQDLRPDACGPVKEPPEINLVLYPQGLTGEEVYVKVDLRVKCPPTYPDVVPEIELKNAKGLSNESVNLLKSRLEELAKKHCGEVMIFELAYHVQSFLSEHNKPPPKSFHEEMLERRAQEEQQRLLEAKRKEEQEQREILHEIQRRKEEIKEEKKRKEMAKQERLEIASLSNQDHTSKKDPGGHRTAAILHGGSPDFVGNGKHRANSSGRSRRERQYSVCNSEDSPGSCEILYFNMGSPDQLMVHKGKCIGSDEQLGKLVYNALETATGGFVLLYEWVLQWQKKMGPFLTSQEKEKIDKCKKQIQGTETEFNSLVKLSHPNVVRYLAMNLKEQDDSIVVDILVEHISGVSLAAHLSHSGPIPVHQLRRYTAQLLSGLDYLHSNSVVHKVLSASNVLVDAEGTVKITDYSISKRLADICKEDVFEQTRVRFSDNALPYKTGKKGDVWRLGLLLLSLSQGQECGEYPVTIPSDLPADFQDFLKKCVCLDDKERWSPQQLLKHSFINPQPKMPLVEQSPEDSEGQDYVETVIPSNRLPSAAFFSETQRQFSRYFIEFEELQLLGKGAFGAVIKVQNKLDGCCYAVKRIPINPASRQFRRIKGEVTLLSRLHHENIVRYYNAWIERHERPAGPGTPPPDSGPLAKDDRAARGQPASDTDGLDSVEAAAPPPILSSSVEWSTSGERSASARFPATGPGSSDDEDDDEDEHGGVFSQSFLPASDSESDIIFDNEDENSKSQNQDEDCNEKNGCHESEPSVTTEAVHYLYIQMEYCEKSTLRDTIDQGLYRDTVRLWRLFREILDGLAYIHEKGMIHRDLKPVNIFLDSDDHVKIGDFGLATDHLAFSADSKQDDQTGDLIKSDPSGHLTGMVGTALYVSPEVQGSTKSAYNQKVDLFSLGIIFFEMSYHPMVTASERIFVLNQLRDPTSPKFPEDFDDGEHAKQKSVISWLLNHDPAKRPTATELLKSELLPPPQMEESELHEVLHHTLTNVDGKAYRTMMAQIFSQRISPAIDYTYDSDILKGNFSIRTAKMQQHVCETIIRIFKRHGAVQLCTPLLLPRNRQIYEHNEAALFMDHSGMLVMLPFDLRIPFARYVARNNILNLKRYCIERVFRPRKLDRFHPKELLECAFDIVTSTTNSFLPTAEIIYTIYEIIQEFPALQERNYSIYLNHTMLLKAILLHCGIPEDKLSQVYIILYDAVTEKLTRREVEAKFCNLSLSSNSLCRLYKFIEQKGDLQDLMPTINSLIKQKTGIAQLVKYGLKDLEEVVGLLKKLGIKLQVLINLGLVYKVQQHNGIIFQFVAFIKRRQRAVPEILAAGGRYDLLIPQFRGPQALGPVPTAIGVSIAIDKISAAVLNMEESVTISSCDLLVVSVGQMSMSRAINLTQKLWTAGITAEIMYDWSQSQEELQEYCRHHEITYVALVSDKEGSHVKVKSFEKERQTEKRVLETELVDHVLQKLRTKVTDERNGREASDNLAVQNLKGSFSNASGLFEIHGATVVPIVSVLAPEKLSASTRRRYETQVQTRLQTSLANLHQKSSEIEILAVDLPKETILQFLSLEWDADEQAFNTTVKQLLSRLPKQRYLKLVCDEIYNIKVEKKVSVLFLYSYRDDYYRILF
Description: <Experimental Example 2> Evaluation of General Control Nonderepressible 2 (GCN2) Inhibitory Capacity
(§1) A recombinant human GCN2 protein was mixed with the compound in a reaction solution (20 mM Tris/HCl pH8.5, 0.2 mM EDTA, 0.1% Tween, 100 mM NaCl, 300 μM RSRSRSRSRSRSRSR, 10 mM Magnesium acetate, 70 uM [gamma-33P-ATP]) and reacted at room temperature for 40 minutes. Then, the reaction was terminated by adding phosphoric acid (0.5%) to the reaction mixture, and 10 ul of the reaction solution was dropped onto a P30 filter. The filter was washed four times in a 0.425% phosphoric acid solution for 4 minutes, then washed once more in methanol, dried, and the GCN2 activity was measured by scintillation counting. […] The compound was diluted by 1/3 from the highest concentration of 1 uM and treated with a total of 9 concentrations to evaluate the degree of inhibition.

phosphorylated GCN2 = biological target: T1, phosphorylated GCN2 (Homo sapiens, UniProt Q9P2K8); assay: Inhibition of phosphorylated GCN2 under amino acid deficiency in HT-1080 cells, Western blot; type: cell-based; conditions: compound 50 nM, 24 hours; for Phospho-GCN2 inhibition: symbols ◯ / X not defined
T1 construct: endogenous in cells; host or cells: HT-1080
T1 sequence (Q9P2K8 whole entry): as above
Description: <Experimental Example 5> Evaluation of Inhibitory Efficacy of ISR-Related Kinase GCN2 Under Amino Acid Deficiency Condition Using Western Blot
HT-1080 cells, a human fibrosarcoma cell line, were cultured in RPMI-1640 medium supplemented with 10% FBS, penicillin (penicillin; 100 IU/ml), and streptomycin (streptomycin; 100 μg/ml). Cells (1×10^6 cells/ml) were seeded onto 100 mm plates (polypropylene tissue culture plate) and incubated for 24 hours in a 37° C., 5% CO2 incubator before being used for experiments.
The following method was used to achieve amino acid deficiency conditions in cells. After 24 hours of cell culture, the cells were cultured in amino acids and L-glutamine-free RPMI-1640 medium supplemented with 10% FBS, penicillin (100 IU/ml), and streptomycin (100 μg/ml). After 24 hours of cell culture in RPMI-1640 without amino acids and L-glutamine, the compound prepared at a concentration of 50 nM was dispensed onto each plate and cultured for 24 hours in a 37° C., 5% CO2 incubator.
In order to measure the signal transduction inhibitory efficacy of GCN among the ISR-related kinases according to the present invention, the following experiment was performed using SDS-PAGE. The fibrosarcoma cell line HT-1080 cells cultured on plates as described above were washed with PBS after removing the culture medium. After removing PBS, the cells were lysed by adding a radio-immunoprecipitation assay buffer (RIPA buffer) containing 50 mM Tris (pH 7.4), 150 mM NaCl, 1% NP-40, 0.5% sodium deoxycholate, 2 mM sodium fluoride, 2 mM EDTA, 0.1% SDS, and a protease/phosphatase inhibitor cocktail to the plate. After centrifugation at 4° C., 13,000×g for 15 minutes, the protein in the upper layer was collected, and the protein concentration was measured at 562 nm using BCA (bicinchoninc acid) reagent, and the amount of protein in all samples was prepared at 20-50 μg.
After making the total volume the same using the sample buffer and RIPA buffer, it was heated at 97° C. for 5 minutes. Then, electrophoresis was performed on 8% or 12% SDS-PAGE at 80 V for 30 minutes and at 160 V for 1 hour and 30 minutes. After electrophoresis, the SDS-PAGE gel was transferred to an NC membrane (nitrocellulose membrane) at 90 V for 2 hours. The NC membrane was placed in TBST (tris buffer saline tween-20; 20 mM tris, 137 mM sodium chloride, 0.1% tween-20, pH 8.0) containing 5% non-fat skim milk, placed on a shaker, and reacted at room temperature for 1 hour.
Each primary antibody was diluted in TBST containing 5% non-fat skim milk, poured onto the NC membrane, and reacted at 4° C. for 24 hours. The membrane was washed three times for 10 minutes each with TBST. The secondary antibodies (anti-rabbit IgG and anti-mouse IgG labeled with horseradish peroxidase (HRP)) were diluted in TBST containing 5% non-fat skim milk and reacted with the membrane at room temperature for 1 hour. Upon completion of the reaction, the membrane was washed three times with TBST for 10 minutes each. Protein expression bands were detected by a chemiluminescence image analyzer (Image Quant LAS 500) after the ECL solution was reacted with the NC membrane.
GCN2, a key kinase of the integrated stress response (ISR), is phosphorylated in response to amino acid deficiency.

[2] = biological target: T2, recombinant human PERK protein (Homo sapiens, UniProt Q9NZJ5); assay: PKR-like endoplasmic reticulum kinase (PERK) inhibitory capacity, 33P-ATP filter assay; type: biochemical; conditions: 15 uM [gamma-33P-ATP], 40 minutes, room temperature
T2 sequence (Q9NZJ5 30-1116): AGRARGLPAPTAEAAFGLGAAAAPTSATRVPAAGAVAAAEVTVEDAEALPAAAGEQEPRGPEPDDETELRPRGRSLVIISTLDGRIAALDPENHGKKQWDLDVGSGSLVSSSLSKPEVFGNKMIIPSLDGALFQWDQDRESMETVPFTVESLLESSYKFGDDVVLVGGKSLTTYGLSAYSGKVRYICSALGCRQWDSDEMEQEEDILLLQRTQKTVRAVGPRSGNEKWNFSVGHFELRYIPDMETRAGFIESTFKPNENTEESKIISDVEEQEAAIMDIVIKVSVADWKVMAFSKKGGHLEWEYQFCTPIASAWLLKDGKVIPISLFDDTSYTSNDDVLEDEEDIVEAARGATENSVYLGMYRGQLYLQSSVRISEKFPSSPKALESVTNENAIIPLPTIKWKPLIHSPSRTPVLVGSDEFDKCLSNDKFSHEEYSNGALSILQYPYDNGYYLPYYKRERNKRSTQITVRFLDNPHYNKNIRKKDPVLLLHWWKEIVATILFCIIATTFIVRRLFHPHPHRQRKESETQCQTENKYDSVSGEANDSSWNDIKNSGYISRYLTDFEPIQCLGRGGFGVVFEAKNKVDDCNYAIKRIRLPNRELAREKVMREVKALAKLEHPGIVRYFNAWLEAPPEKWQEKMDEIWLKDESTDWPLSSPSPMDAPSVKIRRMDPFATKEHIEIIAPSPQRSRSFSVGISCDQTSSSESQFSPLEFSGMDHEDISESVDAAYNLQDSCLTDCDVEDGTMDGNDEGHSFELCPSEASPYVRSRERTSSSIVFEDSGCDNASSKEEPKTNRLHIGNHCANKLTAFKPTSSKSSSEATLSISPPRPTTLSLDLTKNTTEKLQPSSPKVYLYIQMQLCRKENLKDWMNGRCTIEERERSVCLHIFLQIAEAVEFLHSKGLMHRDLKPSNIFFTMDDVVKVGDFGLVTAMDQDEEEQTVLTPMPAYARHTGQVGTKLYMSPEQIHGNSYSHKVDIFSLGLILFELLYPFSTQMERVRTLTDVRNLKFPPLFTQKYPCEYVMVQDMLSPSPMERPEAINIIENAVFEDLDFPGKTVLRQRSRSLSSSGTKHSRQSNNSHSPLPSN
Description: <Experimental Example 1> Evaluation of PKR-Like Endoplasmic Reticulum Kinase (PERK) Inhibitory Capacity
as §1, with “PERK” for “GCN2”, “(8” for “(20”, “MOPS pH 7.0,” for “Tris/HCl pH8.5,”, “EDTA,” for “EDTA, 0.1% Tween, 100 mM NaCl,”, “uM” for “μM”, “15” for “70”

[3] = biological target: recombinant human PKR protein (Homo sapiens, UniProt P19525); assay: Protein kinase R (PKR) inhibitory capacity, 33P-ATP filter assay; type: biochemical; conditions: 15 uM [gamma-33P-ATP], 40 minutes, room temperature
Chain of recombinant human PKR protein (P19525 whole entry): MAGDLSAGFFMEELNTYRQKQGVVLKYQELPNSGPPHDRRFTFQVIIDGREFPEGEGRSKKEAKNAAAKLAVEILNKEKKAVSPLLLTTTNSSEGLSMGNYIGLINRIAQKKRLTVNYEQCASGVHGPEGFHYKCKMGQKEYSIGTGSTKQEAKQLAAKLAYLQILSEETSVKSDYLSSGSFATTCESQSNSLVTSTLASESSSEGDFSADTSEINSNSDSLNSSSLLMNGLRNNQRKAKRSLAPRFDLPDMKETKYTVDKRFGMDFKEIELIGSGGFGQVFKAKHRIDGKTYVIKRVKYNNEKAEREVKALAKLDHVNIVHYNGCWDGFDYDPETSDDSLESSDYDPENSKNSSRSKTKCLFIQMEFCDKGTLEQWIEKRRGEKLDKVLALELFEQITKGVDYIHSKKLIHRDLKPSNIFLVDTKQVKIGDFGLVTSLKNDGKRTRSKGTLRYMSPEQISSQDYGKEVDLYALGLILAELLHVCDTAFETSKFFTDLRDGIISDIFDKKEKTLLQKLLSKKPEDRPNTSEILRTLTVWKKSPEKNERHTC
Description: <Experimental Example 4> Evaluation of Protein Kinase R (PKR) Inhibitory Capacity
as §1, with “PKR” for “GCN2”, “(8” for “(20”, “MOPS pH 7.0,” for “Tris/HCl pH8.5,”, “20 uM” for “0.1% Tween, 100 mM NaCl, 300 μM”, “15” for “70”

[4] = biological target: recombinant human HRI protein (Homo sapiens, UniProt Q9BQI3); assay: eIF2-alpha kinase heme-regulated inhibitor (HRI) inhibitory capacity, 33P-ATP filter assay; type: biochemical; conditions: 45 uM [gamma-33P-ATP], 40 minutes, room temperature
Chain of recombinant human HRI protein (Q9BQI3 whole entry): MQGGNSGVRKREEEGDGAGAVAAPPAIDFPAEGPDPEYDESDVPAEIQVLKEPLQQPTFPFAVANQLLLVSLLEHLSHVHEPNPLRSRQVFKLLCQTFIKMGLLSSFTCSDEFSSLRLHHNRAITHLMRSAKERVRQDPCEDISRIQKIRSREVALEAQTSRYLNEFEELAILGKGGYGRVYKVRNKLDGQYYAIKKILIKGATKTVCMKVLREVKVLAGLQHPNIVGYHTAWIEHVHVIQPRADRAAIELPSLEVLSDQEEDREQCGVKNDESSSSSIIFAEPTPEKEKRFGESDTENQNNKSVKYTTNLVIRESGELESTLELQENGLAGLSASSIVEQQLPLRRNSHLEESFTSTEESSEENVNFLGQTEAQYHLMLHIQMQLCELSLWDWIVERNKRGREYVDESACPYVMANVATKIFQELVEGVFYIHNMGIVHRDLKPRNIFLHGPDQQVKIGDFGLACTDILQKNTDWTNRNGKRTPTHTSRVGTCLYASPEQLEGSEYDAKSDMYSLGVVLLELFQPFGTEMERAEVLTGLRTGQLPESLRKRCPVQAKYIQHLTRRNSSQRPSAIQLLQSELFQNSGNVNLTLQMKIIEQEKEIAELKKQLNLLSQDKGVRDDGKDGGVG
Description: <Experimental Example 3> Evaluation of eIF2-Alpha Kinase Heme-Regulated Inhibitor (HRI) Inhibitory Capacity
A recombinant human HRI protein was mixed with the compound in a reaction solution (50 mM Tris/HCl pH 7.5, 0.04 mM EDTA, 300 uM RSRSRSRSRSRSRSR, 10 mM Magnesium acetate, 45 uM [gamma-33P-ATP]) and reacted at room temperature for 40 minutes. Then, the reaction was terminated by adding phosphoric acid (0.5%) to the reaction mixture, and […] of the reaction solution was dropped onto a P30 filter. The filter was washed four times in a 0.425% phosphoric acid solution for 4 minutes, then […] washed once more in methanol, dried, and the HRI activity was measured by scintillation counting. […] The compound was diluted by 1/3 from the highest concentration of 1 uM and treated with a total of 9 concentrations to evaluate the degree of inhibition.

Row | SMILES | IC50 [1] [nM] | inhibitory effect on the phosphorylated GCN2 (phosphorylated GCN2) | Phospho-GCN2 inhibition (phosphorylated GCN2) | IC50 [2] [nM] | IC50 [3] [nM] | IC50 [4] [nM]
1 | COc1ncc(Cl)cc1S(=O)(=O)Nc1ccc(F)c(-n2ccc3nc(N)ncc3c2=O)c1F [Example 26, N-(3-(2-amino-5-oxopirido[4,3-d]pyrimidin-6(5H)-yl)-2,4-difluorophenyl)-5-chloro-2-methoxypyridine-3-sulfonamide] | < 100 | excellent inhibitory effect | ◯ | – | – | –
2 | COc1ncc(C#N)cc1S(=O)(=O)Nc1ccc(F)c(-n2ccc3nc(N)ncc3c2=O)c1F [Example 28, N-(3-(2-amino-5-oxopirido[4,3-d]pyrimidin-6(5H)-yl)-2,4-difluorophenyl)-5-cyano-2-methoxypyridine-3-sulfonamide] | < 100 | – | – | < 100 | > 1000 | 100 to 300
3 | Cc1nn(-c2c(F)ccc(NS(=O)(=O)c3c(Cl)nn(C)c3C)c2F)c(=O)c2cnc(N)nc12 [Example 36, N-(3-(2-amino-8-methyl-5-oxopyrimido[4,5-d]pyridazine-6(5H)-yl)-2,4-difluorophenyl)-3-chloro-1,5-dimethyl-1H-pyrazole-4-sulfonamide] | 100 to 300 | excellent inhibitory effect | – | – | – | –
4 | COc1ncc(Cl)cc1S(=O)(=O)Nc1ccc(F)c(-n2nc(C)c3nc(N)ncc3c2=O)c1F [Example 38, N-(3-(2-amino-8-methyl-5-oxopyrimido[4,5-d]pyridazine-6(5H)-yl)-2,4-difluorophenyl)-5-chloro-2-methoxypyridine-3-sulfonamide] | 100 to 300 | – | ◯ | – | – | –
5 | Cc1nn(C)c(C)c1S(=O)(=O)Nc1ccc(F)c(-n2c(=O)c3cnc(N)nc3n(C)c2=O)c1F [Example 48, N-(3-(7-amino-1-methyl-2,4-dioxo-1,4-dihydropyrimido[4,5-d]pyrimidin-3(2H)-yl)-2,4-difluorophenyl)-1,3,5-trimethyl-1H-pyrazole-4-sulfonamide] | 100 to 300 | – | ◯ | – | – | –
6 | Nc1ncc2c(=O)n(-c3c(F)ccc(NS(=O)(=O)c4cc(Cl)ccc4Cl)c3F)c(=O)n(C3CC3)c2n1 [Example 63, N-(3-(7-amino-1-cyclopropyl-2,4-dioxo-1,4-dihydropyrimido[4,5-d]pyrimidin-3(2H)-yl)-2,4-difluorophenyl)-2,5-dichlorobenzenesulfonamide] | 300 to 1000 | excellent inhibitory effect | ◯ | – | – | –
7 | Nc1ncc2c(=O)n(-c3c(F)ccc(NS(=O)(=O)c4cccc5ccccc45)c3F)c(=O)n(C3CC3)c2n1 [Example 64, N-(3-(7-amino-1-cyclopropyl-2,4-dioxo-1,4-dihydropyrimido[4,5-d]pyrimidin-3(2H)-yl)-2,4-difluorophenyl)naphthalene-1-sulfonamide] | 300 to 1000 | excellent inhibitory effect | ◯ | – | – | –
8 | COc1ncc(Cl)cc1S(=O)(=O)Nc1ccc(F)c(-n2c(=O)c3cnc(N)nc3n(C3CC3)c2=O)c1F [Example 65, N-(3-(7-amino-1-cyclopropyl-2,4-dioxo-1,4-dihydropyrimido[4,5-d]pyrimidin-3(2H)-yl)-2,4-difluorophenyl)-5-chloro-2-methoxypyridine-3-sulfonamide] | 300 to 1000 | excellent inhibitory effect | ◯ | – | – | –
